One assay has as its system mouse brown fat tissue. The assay can be described thus: lipid histochemistry of fresh fat tissue, Oil Red O staining (positive control tissue). The conditions noted are these: for dissolving of mouse fat tissue: 37° C., 24 hrs, compared with untreated fat tissue. The procedure: (§1) Unfixed, donor eye with AMD drusen was immersed in 30% sucrose in PBS buffer at pH 7.4 for 24 hours at 4° C. for cryoprotection, then embedded in OCT. For cryostat sections, the eye was serially sectioned at 8 μm thickness and stored at −70° C. Drusen were identified under the microscope. Unfixed fresh frozen mouse brown fat tissue was sectioned at 10 μm thickness as the positive control.
Hydroxypropyl β-cyclodextrin selected compound was titered to the best concentration by mouse fat tissue at 37° C. for 24 hrs (Table.2).
(§2) Unfixed frozen human eye drusens were considered closest to the in vivo state of drusen. Mouse brown fat was used for positive control.

In assay [1] the test system is lipid component of drusen. The assay can be described thus: lipid histochemistry of drusen in eyes with AMD, Oil Red O staining. Conditions: 40 ml of 25% solution, 37° C., 24 hrs. More on the design: species or system human. The procedure: as §1
(§3) A viable in vitro assay to evaluate compounds with a potential to remove drusen in the eye was explored. Sections with drusen were treated with cyclodextrin for 30 min, 1 hr, 2 hrs, 4 hrs, 15 hrs at room temperature. In a subsequent experiment, sections with drusen were immersed in 40 ml of 25% Hydroxypropyl β-cyclodextrin at 37° C. for 24 hrs.
as §2

For the next assay, the system named is drusen. The assay can be described thus: in vitro drusen removal assay, frozen drusen sections treated with cyclodextrin, H&E staining. The arrangement: species or system human. The method, then:
as §1, §3, §2

Entries after “also recorded” stand apart in the source; their conditions may differ.

2 substances from US8158609B1, “Use of cyclodextrins as an active ingredient for treating dry AMD and solubilizing drusen” (Novartis AG, priority 2006, dated 2012) can be followed below.

Turning to Hydroxypropyl β-cyclodextrin, the “dissolving of fresh mouse fat tissue” value with mouse brown fat tissue (25% solution) is given as “has efficacy in dissolving fresh mouse fat tissue”. Further, the “dissolving of mouse fat tissue” value in the assay on mouse brown fat tissue (25%-45% solution) is given as “has effect on dissolving the partial fat tissue; also recorded: partial fat tissues were dissolved”. Further, the “ORO staining of lipid-containing drusen / dissolving the lipid component of drusen” value in assay [1] is reported as “stained negatively; also recorded: has efficacy in dissolving the lipid component of drusen”. Further, the “size of a drusen, H&E 40× (FIG. 1C)” value in the assay with drusen (25% solution, 2 hours) was “reduced size”. Moreover, the “change / dissolving of drusen by H&E staining” value with drusen (40 ml, 25% (different concentration), 37° C., 24 hrs) is reported as “no change; also recorded: could not completely dissolve drusen”.

For Sulfonyletherbutyl β-cyclodextrin, the “dissolving of mouse fat tissue” value in the assay on mouse brown fat tissue (30% solution) is “partial fat tissues were dissolved”.
